Test results reported in article PMC10888562 (International Journal of Molecular Sciences, 2024).
Values joined by “and” are separate entries in the source; they are usually repeats but may differ in a detail not shown here. Equal values may be shown once. Read-outs that look alike come from different tables or passages of the source.

Legend:
[1] = test system: HT29 colon; parameters: method as in PMID 36142383, PMID 37173934, PMID 36296713; conditions: cited from earlier work
[2] = test system: U87 glioblastoma; parameters: method as in PMID 36142383, PMID 37173934, PMID 36296713; conditions: cited from earlier work
[3] = test system: Du145 prostate; parameters: method as in PMID 36142383, PMID 37173934, PMID 36296713; conditions: cited from earlier work
[4] = test system: multiple human cell lines; parameters: method as in PMID 36142383, PMID 37173934, PMID 36296713; conditions: average over all cell lines; cited from earlier work
[5] = test system: BE2-C neuroblastoma; parameters: method as in PMID 36142383, PMID 37173934, PMID 36296713; conditions: cited from earlier work
[6] = test system: HT29 colon cells; parameters: method as in PMID 36142383, PMID 37173934, PMID 36296713; conditions: cited from earlier work
[7] = test system: SJ-G2 glioblastoma; parameters: method as in PMID 36142383, PMID 37173934, PMID 36296713; conditions: cited from earlier work
[8] = test system: histone deacetylase (HDAC); test: Fluorometric HDAC activity assay on extracts of treated HT29 cells; assay type: cell-based, human; conditions: HT29 colon cells treated 72 h at GI50 concentration; lower RFU = decline in HDAC activity; HT29 extract control 5154 ± 40
Experimental: All values are expressed as RFU.
To study the HDAC activity in HT29 treated cells, a Fluorometric HDAC Activity Assay Kit ab156064 (Abcam, Cambridge, MA, USA) was used and all sample preparations were made based on the manufacturer’s protocol. A total of 10^6 cells/mL of HT29 cells were seeded in DMEM with serum deprivation for 18 h to synchronise the cells. […] Cells were then washed with cold PBS and resuspended in lysis buffer (10 mM Tris HCl (pH 7.5), 10 mM NaCl, 15 mM MgCl2, 250 mM sucrose, 0.5% NP-40 and 0.1 mM EGTA) and lysed on ice for 20 min. Cells were centrifuged through 4 mL of sucrose cushion (30% sucrose, 10mM Tris HCl (pH 7.5), 10 mM NaCl and 3mM MgCl2) at 1300× g for 10 min at 4 °C. Supernatant was discarded and the pellet was washed and resuspended in extraction buffer (50 mM HEPES-KOH (pH 7.5), 420 mM NaCl, 0.5 mM EDTA 2Na, 0.1 mM EGTA and 10% glycerol) and then sonicated for 30 s. Nuclei were lysed for 30 min on ice and centrifuged at 20,000× g for 30 min. The supernatant was collected, and the samples were prepared for the fluorometric assay according to the manufacturer’s protocol (Histone Deacetylase (HDAC) Activity Assay Fluorometric Kit ab156064, Abcam). The changes in the relative fluorescence intensity (expressed as RFU) were recorded each minute over 60 min using the Glo-Max®-Multimode microplate reader (Promega Corporation, Alexandra, VIC, Australia) at an excitation/emission of 355/460 nm.

[9] = test system: cisplatin-resistant ADDP ovarian variant; parameters: method as in PMID 36142383, PMID 37173934, PMID 36296713; conditions: cited from earlier work
[10] = test system: HT29 colon cells; test: TMRE mitochondrial membrane potential (MtMP) assay; assay type: cell-based, human; conditions: GI50 drug concentration (FCCP 20 μM)
Experimental: This was achieved by determining if the overproduction of ROS induced by these complexes impacts mitochondrial activity by altering MtMP. Briefly, there is evidence showing a strong correlation between increased levels of ROS and mitochondrial impairment. […] The MtMP changes recorded are measured as RFU. […] To investigate the MtMP changes in HT29 treated cells, a TMRE-MtMP Assay Kit (Abcam, Cambridge, MA, USA) was used, as previously described. In 96-well plates, 25,000 cells/mL of HT29 colon cells in DMEM were seeded. Cells were treated with a GI50 drug concentration for each complex. At 24, 48 or 72 h, cells were washed with PBS and stained with tetramethylrhodamine, ethyl ester (TMRE) (1 μM) and incubated for 30 min. TMRE was then removed, and cells were then re-washed with PBS (0.2% BSA), after which phenol red free media was added. The plates were directly scanned to measure fluorescence (expressed as RFU), using the Glo-Max®-Multimode microplate reader (Promega Corporation, Alexandra, VIC, Australia) at an excitation/emission of 549/575 nm. For the positive control, 20 μM carbonyl cyanide 4-(trifluoromethoxy) phenylhydrazone (FCCP)) was added to the cells and incubated for 10 min. The cells were washed with PBS (0.2% BSA) and stained with TMRE (1 μM) for 30 min; this was removed, and phenol red free media was added, and the final solution was scanned as mentioned above.

[11] = test system: MCF-7 breast; parameters: method as in PMID 36142383, PMID 37173934, PMID 36296713; conditions: cited from earlier work
[12] = test system: MIA pancreas; parameters: method as in PMID 36142383, PMID 37173934, PMID 36296713; conditions: cited from earlier work
[13] = test system: A431 skin; parameters: method as in PMID 36142383, PMID 37173934, PMID 36296713; conditions: cited from earlier work
[14] = test system: A2780 ovarian; parameters: method as in PMID 36142383, PMID 37173934, PMID 36296713; conditions: cited from earlier work
[15] = test system: peritoneal carcinoma; parameters: method as in PMID 20535526; conditions: BD-IX rats with peritoneal carcinoma; cited from earlier work
[16] = test system: H460 lung; parameters: method as in PMID 36142383, PMID 37173934, PMID 36296713; conditions: cited from earlier work
[17] = test system: non-tumour-derived MCF10A breast line; parameters: method as in PMID 36142383, PMID 37173934, PMID 36296713; conditions: cited from earlier work
[18] = test system: prostate tumour; parameters: method as in PMID 18997969; conditions: mice with prostate tumour; cited from earlier work

SMILES	GI50 [1] [nM]	GI50 [2] [nM]	GI50 [3] [nM]	GI50 [4] [nM]	GI50 [5] [nM]	ROS Production ([6]; 24 h) [RFU]	ROS Production ([6]; 48 h) [RFU]	ROS Production ([6]; 72 h) [RFU]	GI50 [7] [nM]	HDAC Inhibition at 72 h [8]	GI50 [9] [nM]	MtMP Changes ([10]; 24 h, control 542 ± 4) [RFU]	MtMP Changes ([10]; 48 h, control 507 ± 11) [RFU]	MtMP Changes ([10]; 72 h, control 449 ± 10) [RFU]	GI50 [11] [nM]	GI50 [12] [nM]	GI50 [13] [nM]	GI50 [14] [nM]	GI50 [16] [nM]	GI50 [17] [nM]	other results
Cc1c(C)c2cccnc2c2ncccc12.N[C@H]1CCCC[C@@H]1N.[Pt] [56MESS, [Pt^II(5,6-Me2phen)(SS-DACH)]^2+]	10 ± 1.6	35 ± 6.4	4.6 ± 0.4	36 ± 10	59 ± 4	240 ± 5	218 ± 3	255 ± 4	66 ± 22	1847 RFU and 1847 ± 42 RFU	13 ± 2	277 ± 5	211 ± 7	151 ± 7	93 ± 44	13 ± 2	29 ± 1	76 ± 57	21 ± 2	16 ± 1	nephrotoxicity [15]: caused nephrotoxicity; tumour suppression [15]: ineffective in suppressing tumour
N[C@H]1CCCC[C@@H]1N.[Pt+2].c1cnc2c(c1)ccc1cccnc12 [PHENSS, [Pt^II(phen)(SS-DACH)]^2+]	160 ± 45	980 ± 270	100 ± 38	434 ± 110	380 ± 46	174 ± 2	172 ± 9	176 ± 7	330 ± 66	3733 ± 37 RFU	190 ± 47	321 ± 7	305 ± 5	257 ± 6	1500 ± 500	200 ± 57	480 ± 170	230 ± 30	360 ± 35	300 ± 58	rate of tumour regression [18]: comparable to cisplatin; toxicity [18]: no toxicity was detected
